Experimental data taken from US20200138827A1, “SMALL MOLECULE MODULATORS OF HUMAN STING” (Curadev Pharma Limited, priority 2017, published 2020).
Like-named read-outs stand apart in the source and are kept apart here.

Tests used:
hSTING(H232) = target: T1, hSTING(H232) (Homo sapiens, UniProt Q86WV6); experiment: Luciferase reporter assay in HEK293T-hSTING-Luciferase cells, H232 polymorph; assay type: cell-based; details: 20 hr stimulation, read-out: H232 activity (EC50 range)
T1 construct: host or cells: HEK293T
T1 sequence (Q86WV6 whole entry): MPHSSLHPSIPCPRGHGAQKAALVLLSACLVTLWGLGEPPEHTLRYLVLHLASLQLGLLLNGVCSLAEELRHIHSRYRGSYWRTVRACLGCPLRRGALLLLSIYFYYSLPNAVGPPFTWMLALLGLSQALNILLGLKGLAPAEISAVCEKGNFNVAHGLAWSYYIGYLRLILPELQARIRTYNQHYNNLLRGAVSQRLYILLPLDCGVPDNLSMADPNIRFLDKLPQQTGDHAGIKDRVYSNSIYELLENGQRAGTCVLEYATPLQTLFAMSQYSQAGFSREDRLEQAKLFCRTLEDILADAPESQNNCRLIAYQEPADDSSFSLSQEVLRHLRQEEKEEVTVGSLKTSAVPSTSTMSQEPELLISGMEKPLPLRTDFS
From the text: (§1) • a) Stable STING expressing cells—Stable HEK293T STING-expressing cell lines were generated using plasmids purchased from Invivogen, Calif., USA, that contain STING cDNA cloned into the pUNO-1 vector under hEF1-HTLV promoter and containing the Blasticidin selection cassette. The plasmids hSTING(R232), hSTING(H232), hSTING(HAQ) were directly procured from Invivogen while hSTING (AQ) and hSTING (Q) were derived from hSTING(HAQ) and hSTING (R232) plasmids respectively by using a PCR based site directed mutagenesis method. These vectors were individually transfected into HEK293T cells using Lipofectamine (Invitrogen) and transfected cells were selected under Blasticidin selection. These transfected cells were further subjected to clonal selection using the limiting dilution method to obtain clonally pure populations of HEK cells transfected with each of the above mentioned human STING variants. Only those clones were selected in which ligand independent activation of STING was minimal. • b) Stable Luciferase reporter gene expressing cells—Stable HEK293T Luciferase reporter gene expressing cell lines were generated using pCDNA4 plasmids under an IRF-inducible promoter. This promoter is comprised of five tandem interferon-stimulated response elements (ISRE) fused to an ISG54 minimal promoter. This vector was transfected into HEK293T cells using Lipofectamine (Invitrogen) and transfected cells were selected under Zeocin selection. These transfected cells were further subjected to clonal selection using the limiting dilution method to obtain clonally pure populations of HEK cells transfected the Luciferase reporter construct. Only those clones were selected in which ligand independent induction of luciferase was minimal.
(§2) 5×10^5 clonally selected HEK293T-hSTING-Luciferase cells were seeded in 384-well plates in growth medium and stimulated with novel compounds. After 20 hr of stimulation supernatant were removed and secretary reporter gene activity were measured using the Quanti-Luc detection system (Invivogen) on a Spectramax i3X luminometer.
(§3) The 5 major polymorphisms of human STING are shown in FIG. 1, with their prevalence in human populations indicated.

WT/R232 STING protein = target: T2, WT/R232 STING protein (Homo sapiens, UniProt Q86WV6, H232R); experiment: Luciferase reporter assay in HEK293T-hSTING-Luciferase cells, WT/R232; assay type: cell-based; details: 20 hr stimulation, read-out: R232 Activity (EC50 range)
T2 construct: host or cells: HEK293T
T2 sequence (Q86WV6 whole entry H232R): as the sequence (Q86WV6 whole entry) above, with H232R counted along it
Procedure, shortened: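 Clonal HEK293T cells stably expressing human STING R232 plus an ISRE/ISG54-driven luciferase reporter, 5×10^5 per well, stimulated with compounds for 20 h. Secreted luciferase in supernatant measured by luminescence; […].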

NF-κB pathway = experiment: Reporter gene expression assay in THP1-Dual cells, NFkB axis (secreted SEAP); assay type: cell-based, human; details: read-out: THP-NFKB activity (EC50 range)
Description: (§4) THP1-Dual™ cells (Invivogen) were derived from the human THP-1 monocyte cell line by stable integration of two inducible reporter constructs. As a result, THP1-Dual™ cells allow the simultaneous study of the NF-κB pathway, by monitoring the activity of secreted SEAP, and the IRF pathway, by assessing the activity of a secreted luciferase (Lucia). […] THP1-Dual™ cells were seeded in 384-well plates in growth medium and stimulated with novel compounds. After […] of stimulation supernatant were removed and reporter proteins were readily measured in the cell culture supernatant using QUANTI-Blue™ (Invivogen), a SEAP detection reagent, and QUANTI-Luc™ (Invivogen), a luciferase detection reagent on a Spectramax i3X luminometer.

IRF pathway = experiment: Reporter gene expression assay in THP1-Dual cells, IRF axis (secreted Lucia luciferase); assay type: cell-based, human; details: read-out: THP-IRF activity (EC50 range)
Description: as §4

hSTING(HAQ) = target: T3, hSTING(HAQ) (Homo sapiens, UniProt Q86WV6, G230A/H232R/R293Q/R71H); experiment: Luciferase reporter assay in HEK293T-hSTING-Luciferase cells, HAQ polymorph; assay type: cell-based; details: 20 hr stimulation, read-out: HAQ activity (EC50 range)
T3 construct: host or cells: HEK293T
T3 sequence (Q86WV6 whole entry R71H/G230A/H232R/R293Q): as the sequence (Q86WV6 whole entry) above, with R71H, G230A, H232R, R293Q counted along it
From the text: as §1, §2, §3

EC50 (hSTING(H232)) [µM]	EC50 (WT/R232 STING protein) [µM]	EC50 (NF-κB pathway; Homo sapiens, THP1-Dual) [µM]	EC50 (IRF pathway; Homo sapiens, THP1-Dual) [µM]	EC50 (hSTING(HAQ)) [µM]	EC50 (NF-κB pathway) [µM]	EC50 (IRF pathway) [µM]	Compound
1 to 10	1 to 10	> 10	> 10	> 10			O=C(NCc1ccco1)c1ccc2c(c1)N(Cc1ccc(F)cc1)C(=O)CS2 [Example 120, 4-(4-fluorobenzyl)-N-(furan-2-ylmethyl)-3-oxo-3,4-dihydro-2H-benzo[b-1,4]thiazine-6-carboxamide]
1 to 10	1 to 10	> 10	> 10	> 10			O=C(NCc1ccccc1)c1ccc2c(c1)N(Cc1ccccc1)C(=O)CS2 [Example 118, N,4-dibenzyl-3-oxo-3,4-dihydro-2H-benzo[b-1,4]thiazine-6-carboxamide]
1 to 10	< 1	> 10	> 10	1 to 10			O=C(NCc1c(F)cc(F)cc1F)c1cnc2c(c1)N(Cc1cc(F)cc(F)c1)C(=O)CS2 [Example 200, 1-(3,5-difluorobenzyl)-2-oxo-N-(2,4,6-trifluorobenzyl)-2,3-dihydro-1H-pyrido[2,3-b] [1,4]thiazine-7-carboxamide]
1 to 10	< 1	> 10	> 10	1 to 10			C[C@@H]1Oc2ccc(C(=O)NCc3c(F)cc(F)cc3F)cc2N(Cc2cc(F)cc(F)c2)C1=O [Example 234, (S)-4-(3,5-difluorobenzyl)-2-methyl-3-oxo-N-(2,4,6-trifluorobenzyl)-3,4-dihydro-2H-benzo[b-1,4]oxazine-6-carboxamide]
< 1	< 1			< 1	1 to 10	1 to 10	CC1Sc2ncc(C(=O)NCc3cc4ccccc4o3)cc2N(Cc2cc(F)cc(F)c2)C1=O (stereo not drawn) [Example 194, N-(benzofuran-2-ylmethyl)-1-(3,5-difluorobenzyl)-3-methyl-2-oxo-2,3-dihydro-1H-pyrido[2,3-b][1,4]thiazine-7-carboxamide]
< 1	< 1			< 1	1 to 10	1 to 10	CC1Sc2ccc(C(=O)NCc3c(F)cc(F)cc3F)cc2N(Cc2cc(F)cc(F)c2)C1=O (stereo not drawn) [Example 145, 4-(3,5-difluorobenzyl)-2-methyl-3-oxo-N-(2,4,6-trifluorobenzyl)-3,4-dihydro-2H-benzo[b-1,4]thiazine-6-carboxamide]
> 10	1 to 10	> 10	> 10	> 10			CC1(C)Sc2ccc(C(=O)NCC3CCCCC3)cc2N(Cc2ccccc2F)C1=O [Example 136, N-(cyclohexylmethyl)-4-(2-fluorobenzyl)-2,2-dimethyl-3-oxo-3,4-dihydro-2H-benzo[b-1,4]thiazine-6-carboxamide]
> 10	< 1	> 10	> 10	> 10			O=C(NCc1c(F)cc(F)cc1F)c1ccc2c(c1)N(Cc1cc(F)cc(F)c1)S(=O)(=O)CC2 [Example 284, 1-(3,5-Difluorobenzyl)-N-(2,4,6-trifluorobenzyl)-3,4-dihydro-1H-benzo[c][1,2]thiazine-7-carboxamide 2,2-dioxide]
< 1	< 1	1 to 10	1 to 10	< 1			CC1Cc2ccc(C(=O)NCc3c(F)cc(F)cc3F)cc2N(Cc2c(F)cccc2Cl)C1=O (stereo not drawn) [Example 267, 1-(2-Chloro-6-fluorobenzyl)-3-methyl-2-oxo-N-(2,4,6-trifluorobenzyl)-1,2,3,4-tetrahydroquinoline-7-carboxamide]
1 to 10	< 1			1 to 10	> 10	> 10	CC1Sc2ncc(C(=O)NCc3cc4ccccc4o3)cc2N(Cc2cc(F)cc(F)c2)C1=O (stereo not drawn) [Example 193, N-(benzofuran-2-ylmethyl)-1-(3,5-difluorobenzyl)-3-methyl-2-oxo-2,3-dihydro-1H-pyrido[2,3-b][1,4]thiazine-7-carboxamide]
< 1	< 1	1 to 10	> 10	1 to 10			O=C(NCc1c(F)cc(F)cc1F)c1ccc2c(c1)N(Cc1c(F)cccc1Cl)C(=O)CC2 [Example 270, 1-(2-chloro-6-fluorobenzyl)-2-oxo-N-(2,4,6-trifluorobenzyl)-1,2,3,4-tetrahydroquinoline-7-carboxamide]
1 to 10	1 to 10	> 10	> 10	1 to 10			O=C(NCc1cc2ccccc2o1)c1ccc2c(n1)N(Cc1cc(F)cc(F)c1)C(=O)CC2 [Example 281, N-(benzofuran-2-ylmethyl)-8-(3,5-difluorobenzyl)-7-oxo-5,6,7,8-tetrahydro-1,8-naphthyridine-2-carboxamide]
> 10	< 1	> 10	> 10	> 10			O=C(NCc1c(F)cc(F)cc1F)c1cnc2c(c1)N(Cc1c(F)cccc1Cl)C(=O)CS2 [Example 178, 1-(2-chloro-6-fluorobenzyl)-2-oxo-N-(2,4,6-trifluorobenzyl)-2,3-dihydro-1H-pyrido[2,3-b-1,4]thiazine-7-carboxamide]
1 to 10	< 1	1 to 10	1 to 10	< 1			Cc1cccc(CNC(=O)c2ccc3c(c2)N(Cc2ccccc2F)C(=O)C(C)S3)c1 (stereo not drawn) [Example 141, 4-(2-fluorobenzyl)-2-methyl-N-(3-methylbenzyl)-3-oxo-3,4-dihydro-2H-benzo[b-1,4]thiazine-6-carboxamide]
< 1	< 1	> 10	> 10	1 to 10			O=C(NCc1ccc(F)cc1F)c1ccc2c(c1)N(Cc1c(F)cccc1Cl)C(=O)CS2 [Example 34, 4-(2-chloro-6-fluorobenzyl)-N-(2,4-difluorobenzyl)-3-oxo-3,4-dihydro-2H-benzo[b-1,4]thiazine-6-carboxamide]
1 to 10	< 1	> 10	> 10	1 to 10			CC1Sc2ccc(C(=O)NCc3ccco3)nc2N(Cc2cc(F)cc(F)c2)C1=O (stereo not drawn) [Example 189, 4-(3,5-difluorobenzyl)-N-(furan-2-ylmethyl)-2-methyl-3-oxo-3,4-dihydro-2H-pyrido[3,2-b-1,4]thiazine-6-carboxamide]
1 to 10	< 1			1 to 10	1 to 10	1 to 10	Cc1ccc(CNC(=O)c2ccc3c(n2)N(Cc2cc(F)cc(F)c2)C(=O)C(C)S3)o1 (stereo not drawn) [Example 190, 4-(3,5-difluorobenzyl)-2-methyl-N-((5-methylfuran-2-yl)methyl)-3-oxo-3,4-dihydro-2H-pyrido[3,2-b-1,4]thiazine-6-carboxamide]
1 to 10	< 1	> 10	> 10	1 to 10			C[C@H]1Oc2ccc(C(=O)NCc3c(F)cc(F)cc3F)cc2N(Cc2cc(F)cc(F)c2)C1=O [Example 233, (R)-4-(3,5-difluorobenzyl)-2-methyl-3-oxo-N-(2,4.,6-trifluorobenzyl)-3,4-dihydro-2H-benzo[b-1,4]oxazine-6-carboxamide]
< 1				< 1		1 to 10	CC1Sc2ccc(C(=O)NCc3c(F)cc(F)cc3F)cc2N(Cc2ccccc2F)C1=O (stereo not drawn) [Example 142, 4-(2-fluorobenzyl)-2-methyl-3-oxo-N-(2,4,6-trifluorobenzyl)-3,4-dihydro-2H-benzo[b-1,4]thiazine-6-carboxamide]
